The values below come from patent US20210330611A1, “THERAPY FOR NEUROLOGICAL DISEASES/DISORDERS” (priority 2020, published 2021).

For one experiment, the target named is T1, GGT (Mus musculus, UniProt Q60928).
T1 construct: GGT activity in BMDMs left unstimulated or stimulated with fibrin after acivicin or vehicle control treatment; endogenous in cells; host or cells: mouse bone marrow-derived macrophages (BMDMs), fibrin-stimulated
Description: GGT activity assay in fibrin-stimulated BMDMs (enzymatic kit, ProteoGREEN-gGlu probe). Type of experiment: cell-based. Conditions: FIG. 6c, FIG. 13A, B. On the procedure: GGT activity assay. GGT activity was measured using the MaxDiscovery gamma-Glutamyl Transferase (GGT) Enzymatic Assay Kit (Bioo Scientific) according to the manufacturer's protocol. […]. For in vivo GGT activity assay, spinal cord tissues from the onset of MOG35-55 EAE or LPS-injected substantia nigra area at 12 h were prepared. Tissues were homogenized in 0.1 M Tris-HCl and centrifuged at 13,000 g for 30 min at 4° C. The supernatant was collected and subsequently assessed for GGT activity. The absorbance at 405 nm was detected with a SpectraMax M5 microplate reader (Molecular Devices) with SoftMax Pro 5.2 software (Phoenix Technologies Ltd.). The GGT activity in IU/1 was calculated following the manufacturer's protocol by multiplying the average increase in absorbance at 405 nm over 10 min GGT activity was also measured using a fluorescent probe, ProteoGREEN-gGlu (Goryo Chemical, Hokkaido, Japan), according to the manufacturer's protocol. Cultured BMDMs were plated on 96-well, black μ-clear-bottom microtiter plates (Greiner Bio-One) pre-coated with 25 μg/ml fibrin. […] The fluorescence intensity (excitation/emission filter pairs of 488 nm/520 nm) was measured using a SpectraMax M5 microplate reader (Molecular Devices) with SoftMax Pro 5.2 software (Phoenix Technologies).

In a further experiment the test system is human macrophages. Description: ROS production (DHE) in fibrin-stimulated human macrophages. The settings on record: fibrin 24 h, 5 μM inhibitor, FIG. 6b. In kind it is cell-based. On the procedure:
Human macrophage cultures. Human peripheral blood mononuclear cells (PBMCs) were purchased from AllCells, LLC (Alameda, Calif.). To differentiate PBMC into monocyte-derived macrophages, 2×10^6 PBMC/mL were plated in RPMI-1640 media supplemented with 10% FBS, 1% penicillin-streptomycin (Corning), and 50 ng/ml human M-CSF (300-25, Peprotech) in tissue-culture treated dishes (Corning). After 24 h, non-adherent cells were removed, and adherent cells were cultivated for 7-8 additional days at 37° C. in 5% CO2 to promote their full differentiation into macrophages. Oxidant detection with DHE. Intracellular concentrations of ROS were measured using dihydroethidium (DHE) as described (9). Cultured BMDMs or human macrophages were incubated in medium containing 5 μM DHE (Invitrogen) for 30 min Cells were plated on 96-well, black μ-clear-bottom microtiter plates (Greiner Bio-One) pre-coated with 25 μg/ml fibrin. For GGT inhibition, BMDMs or human macrophages were pre-incubated with 5 μM acivicin or GGsTop for 1 h, and the cells were plated on fibrin-coated 96-well plates as described above. PBS was used as vehicle control. Cells were then incubated for 24-48 h and fixed with 4% PFA for 10 min. The DHE fluorescence was detected at an excitation/emission wavelength of 518 nm/605 nm using a SpectraMax M5 microplate reader (Molecular Devices) with SoftMax Pro 5.2 software (Phoenix Technologies Ltd.).

T1 sequence (Q60928 380-568): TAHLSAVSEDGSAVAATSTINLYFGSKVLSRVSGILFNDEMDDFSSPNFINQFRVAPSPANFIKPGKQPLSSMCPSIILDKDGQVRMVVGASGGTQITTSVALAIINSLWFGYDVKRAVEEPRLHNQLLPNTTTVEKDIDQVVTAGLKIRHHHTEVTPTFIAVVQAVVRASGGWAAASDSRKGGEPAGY
T1 sequence (Q60928 1-379): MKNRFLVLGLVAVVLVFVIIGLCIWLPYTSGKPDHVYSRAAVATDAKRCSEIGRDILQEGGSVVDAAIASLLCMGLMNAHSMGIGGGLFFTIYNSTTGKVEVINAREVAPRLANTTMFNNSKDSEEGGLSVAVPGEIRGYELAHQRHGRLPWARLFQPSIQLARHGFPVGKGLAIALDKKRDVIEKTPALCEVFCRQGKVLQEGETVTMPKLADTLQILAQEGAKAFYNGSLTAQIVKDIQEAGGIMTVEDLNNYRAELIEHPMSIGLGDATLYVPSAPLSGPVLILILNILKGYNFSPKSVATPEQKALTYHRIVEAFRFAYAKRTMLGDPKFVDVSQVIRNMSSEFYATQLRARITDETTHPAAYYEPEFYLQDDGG

Consider `N[C@H](C(=O)O)[C@@H]1CC(Cl)=NO1` [Acivicin, (2S)-2-amino-2-[(5S)-3-chloro-4,5-dihydro-1,2-oxazol-5-yl] acetic acid], for which, on GGT, the “fibrin-induced GGT activity in BMDMs” value is recorded as “inhibited”. In the experiment on human macrophages, the “ROS generation (DHE) in human macrophages” value is on record as “decreased”.
